Tests used:
Assay type in all cases: cell-based, human
[1] = system: HeLa cells; experiment: Fluorescent microscopic analysis of conjugate endosomal escape; details: Alexa-488 labeled peptide, 25 μM Antp-BH3, 15 minutes treatment
Method: (§1) HeLas, human cervical carcinoma cells (ATCC CCL-2), were maintained in minimum essential media (MEM) containing L-glutamine, 1% penicillin-streptomycin, and 10% FBS. Prior to experiments, HeLas were allowed to adhere overnight in 8-well chamber slides (20,000 cells/well) for microscopy or 96-well plates (10,000 cells/well) for other assays. Polymer-peptide conjugates and controls were added in MEM with 1% FBS.
An amine reactive Alexa-488 succinimidyl ester was mixed at a 1 to 1 molar ratio with the Antp-BH3 peptide in anhydrous dimethyl formamide (DMF). Unreacted fluorophore and organic solvent were removed using a PD 10 desalting column, and the fluorescently labeled peptide was lyophilized. Alexa-488 labeled Antp-BH3 was conjugated to the polymer as described above. Free peptide or polymer-peptide conjugate was applied to HeLas grown on chambered microscope slides at a concentration of 25 μM Antp-BH3. Cells were treated for 15 minutes, washed twice with PBS, and incubated in fresh media for an additional 30 minutes. The samples were washed again and fixed with 4% paraformaldehyde for 10 minutes at 37° C. Slides were mounted with ProLong Gold Antifade reagent containing DAPI and imaged using a fluorescent microscope.

[2] = system: HeLa cells; experiment: Lactate dehydrogenase (LDH) cytotoxicity assay; details: HeLa cervical cancer cells
Method: Bioconjugate efficacy for triggering tumor cell death was determined using a lactate dehydrogenase (LDH) cytotoxicity assay. At the end of each time point, cells were washed two times with PBS and then lysed with cell lysis buffer (100 μL/well, 20 mM Tris-HCl, pH 7.5, 150 mM NaCl, 1 mM Na2EDTA, 1 mM EGTA, 1% Triton, 2.5 mM sodium pyrophosphate, 1 mM β-glycerophosphate, 1 mM sodium orthovanadate) for 1 hour at 4° C. 20 μl of lysate from each sample was diluted into 80 μl PBS, and LDH was quantified by mixing with 100 μL of the LDH substrate solution. Following a 10 minute incubation, LDH was determined by measuring absorbance at 490 nm. Percent viability was expressed relative to samples receiving no treatment.

[3] = system: HeLa cells; experiment: Flow cytometry evaluation of mitochondrial membrane potential (JC-1 dye); details: 2 hours, 10 μM peptide or equivalent conjugate or polymer alone, versus no treatment
Method: as §1
Loss of mitochondrial membrane potential, a known indicator for apoptosis, was assessed using the JC-1 dye. […] HeLas were incubated for 2 hours with 10 μM peptide or equivalent conjugate or polymer alone. JC-1 was added at a final concentration of 5 μg/mL and incubated for 15 minutes. Cells were washed 2 times with PBS, trypsinized, and resuspended in 0.5% BSA for flow cytometric analysis. Percent of cells displaying mitochondrial depolarization was quantified based on the number of green fluorescent cells that were negative for red fluorescence. Here, a significant loss of red fluorescent JC-1 aggregates and therefore a loss in mitochondrial polarization was detected following treatment with both the Antp-BH3 peptide and the polymer peptide conjugate (FIG. 8A).

[4] = system: caspases 3 and 7; experiment: Caspase 3/7 activity assay; details: HeLa, 30 minutes, 25 μM peptide (alone or as conjugate) or equivalent polymer, relative to no treatment
Method: as §1
Caspase 3/7 activation was measured using a commercially available assay kit. This assay utilizes a profluorescent caspase 3/7 substrate that once enzymatically cleaved becomes fluorescent allowing for determination of relative enzyme activity using a fluorescent plate reader. Here, HeLas were incubated for 30 minutes with 25 μM peptide (alone or as polymer conjugate) in addition to polymer alone in a quantity equivalent to the conjugate samples. Afterwards, a caspase 3/7 fluorigenic indicator was added directly to the culture media for each sample. Plates were shaken for 1 hour and then assayed using a fluorescent plate reader. Data were expressed as percent caspase activity relative to samples receiving no treatment.

[5] = system: erythrocytes; details: pH 5.8
Method: In order to assess the polymer's potential for endosomolytic activity, a membrane disruption assay was utilized to measure the capacity of the polymer to trigger pH-dependent disruption of lipid bilayer membranes as shown in FIG. 5. Whole human blood was drawn and centrifuged for plasma removal. The remaining erythrocytes were washed three times with 150 mM NaCl and resuspended into phosphate buffers corresponding to physiological (pH 7.4), early endosome (pH 6.6), and late endosome (pH 5.8) environments. The polymer (1-40 μg/mL) or 1% Triton X-100 was added to the erythrocyte suspensions and incubated for 1 hour at 37° C. Intact erythrocytes were pelleted via centrifugation, and the hemoglobin content within the supernatant was measured via absorbance at 541 nm. Percent hemolysis was determined relative to Triton X-100. Polymer hemolysis was quantified at concentrations ranging from 1-40 μg/mL relative to 1% v/v Triton X-100. This experiment was completed 2 times in triplicate, yielding similar results. The data shown represent a single experiment conducted in triplicate±standard deviation.

With “NH2-RQIKIWFQNRRMKWKKMGQVGRQLAIIGDDINRRYDSC-COOH (H-RQIKIWFQNRRMKWKKMGQVGRQLAIIGDDINRRYDSC-OH) [Antp-BH3 peptide, cell internalizing form of the Bak-BH3 peptide fused to Antennapedia peptide, carboxy-terminal cysteine]” the “peptide intracellular localization (fluorescence pattern)” value [1] was “punctate staining”, the “HeLa cell death / treatment effect (qualitative)” value [2] was “negligible treatment effect” and the “increase in percent of cells exhibiting loss of mitochondrial polarity” value [3] was “approximately 4 fold”. For the same substance, the “caspase 3/7 activation” value [4] was “approximately 2.5 fold”.

“Poly[HPMA]-b-[(PAA)(BMA)(DMAEMA)] [diblock copolymer]” was tested, and the hemolysis [5] was “significant increase in hemolysis”.
